Data: PMC7999318 (International Journal of Molecular Sciences, 2021)

Key:
ELuc-HepG2 cells [1] = tested on: ELuc-HepG2 cells
CYPs-ELuc-HepG2 cells [2] = tested on: CYPs-ELuc-HepG2 cells
ELuc-HepG2 cells [3] = tested on: ELuc-HepG2 cells; remark: listed apart in the source
CYPs-ELuc-HepG2 cells [4] = tested on: CYPs-ELuc-HepG2 cells; remark: listed apart in the source
ELuc-HepG2 cells [5] = tested on: ELuc-HepG2 cells; remark: listed apart in the source
CYPs-ELuc-HepG2 cells [6] = tested on: CYPs-ELuc-HepG2 cells; remark: listed apart in the source
CYPs-HepG2 cells = conditions: cited from earlier work
wild-type HepG2 cells = conditions: cited from earlier work

Row | Compound | bioluminescence intensity (ELuc-HepG2 cells [1]) | bioluminescence intensity (CYPs-ELuc-HepG2 cells [2]) | bioluminescence intensity in real time (ELuc-HepG2 cells [5]) | bioluminescence intensity in real time (CYPs-ELuc-HepG2 cells [6]) | cytotoxicity (CYPs-HepG2 cells) | cytotoxicity (wild-type HepG2 cells) | other results
1 | Nn1nnc2ccccc21 [ABT, 1-aminobenzotriazole] | not affected | not affected |  |  |  |  | 
2 | OC[C@@H](O)[C@@H](O)[C@H](O)[C@H](O)CO [D-mannitol] | no remarkable changes | no remarkable changes |  |  |  |  | viability by WST-1 assay (ELuc-HepG2 cells [3]): no remarkable changes; viability by WST-1 assay (CYPs-ELuc-HepG2 cells [4]): no remarkable changes; bioluminescence intensities during long-term culture (CYPs-ELuc-HepG2 cells [2]): no significant changes
3 | CCCCCCCCCCCCOS(=O)(=O)[O-].[Na+] [SDS, sodium dodecyl sulfate] |  |  |  |  |  |  | concentration-response curves compared with ELuc-HepG2 cells (bioluminescence) (CYPs-ELuc-HepG2 cells [2]; 3 days): very similar concentration-response curves
4 | COc1cc(NC(C)CCCN)c2ncccc2c1 (centres unmarked) [primaquine] |  |  | Time- and concentration-dependent decreases | much faster decrease |  |  | time at which the first IC50 value was noted (ELuc-HepG2 cells [5]): 22 h; decrease of bioluminescence intensity under CYP2D6 inhibitor (CYPs-ELuc-HepG2 cells [6]): partially abolished; time at which the first IC50 value was noted (CYPs-ELuc-HepG2 cells [6]): 12 h
5 | COc1cc2c(c3oc4cccc(O)c4c(=O)c13)[C@@H]1C=CO[C@@H]1O2 [sterigmatocystin] |  |  |  |  | showed cytotoxicity | not | 
6 | aflatoxin B1 | did not decrease | concentration-dependent decrease | no decrease | time- and concentration-dependent decreases | showed cytotoxicity | not | first IC50 value (ELuc-HepG2 cells [5]): not observed; decrease of bioluminescence intensity under CYP3A4 inhibitor (CYPs-ELuc-HepG2 cells [6]): partially diminished; IC50 (CYPs-ELuc-HepG2 cells [6]; read-out: first IC50 value): 7.9 µM; IC50 values during long-term culture (CYPs-ELuc-HepG2 cells [2]): almost unchanged; aflatoxin B1 concentration-dependent decrease of bioluminescence intensity under CYP inhibitor (CYPs-ELuc-HepG2 cells [2]): completely diminished
